# Measurements taken from patent US6355453B1, “Method for making fluorinated sugars having a side chain and use thereof” (Forschungszentrum Julich GmbH, priority 1998, dated 2002).
# How the values were obtained:
# [1] = biological target: T1, N-acetylneuraminic acid aldolase (Escherichia coli, UniProt P0A6L4); settings: value given in the literature; read-out: Km value for the standard ManNAc/Pyr reaction; cited from earlier work
# [2] = biological target: T1, N-acetylneuraminic acid aldolase; test: Kinetic study of the aldolase-catalysed ManNAc/F-pyr reaction (Equation 1, non-linear regression of initial-rate data)
# O=C(O)C(=O)CF = test: purified protein, by the assay type; settings: other: ManNAc/F-pyr reaction, 24 U*/ml aldolase, pH 7.5, 25° C.
molecule,measurement,setting,value
"CC(=O)C(=O)O [Pyr, pyruvic acid]",Km,[1],8.5 mM
"O=C(O)C(=O)CF [F-Pyr, 1-fluoro-2-oxopropanoic acid]",Ki,[2],49 mM
same,maximal activity of the reaction,[2]; enzyme charge of >24 U*/mg,0.9 U/mg
N-acetylneuraminic acid aldolase (Escherichia coli K-12),Km,O=C(O)C(=O)CF,41 mM
